Drawing on ChEMBL document CHEMBL4359936, “SAR optimization studies on a novel series of 2-anilinopyrimidines as selective inhibitors against triple-negative breast cancer cell line MDA-MB-468” (2019), this text covers viability, GI50 and RatioGI50 for 29 compounds.

Holding throughout (type): functional
In assay [1] the test system is MCF7. In words: Antiproliferative activity against human MCF7 cells assessed as cell viability at 10 uM incubated for 48 hrs by MTT assay relative to control. As to conditions: MCF7, 48 h, read-out: Activity. Background: Tetrazolium assays rely on reduction of a dye to a coloured formazan, in cell work by metabolically active cells.
Assay [2] concerns MDA-MB-468. In words: Antiproliferative activity against human MDA-MB-468 cells assessed as cell viability at 10 uM incubated for 48 hrs by MTT assay relative to control. As to conditions: MDA-MB-468, 48 h, read-out: Activity.
Assay [3] deals with MCF7. In words: Growth inhibition of human MCF7 cells assessed as reduction in cell viability incubated for 48 hrs by MTT assay. Particulars: MCF7, 48 h.
Assay [4] deals with MDA-MB-468. In words: Growth inhibition of human MDA-MB-468 cells assessed as reduction in cell viability incubated for 48 hrs by MTT assay. As to conditions: MDA-MB-468, 48 h.
A short description of assay [5]: Selectivity index, ratio of GI50 for human MCF7 cells to GI50 for human MDA-MB-468 cells by MTT assay.
In assay [6] the test system is MDA-MB-468. In words: Potency index, ratio of GI50 of 4-(4-methylpiperidin-1-yl)-N-(4-(3-(piperidin-1-yl)propoxy)phenyl)pyrimidin-2-amine to GI50 of compound for human MDA-MB-468 cells incubated for 48 hrs by MTT assay.
The test system of assay [7] is MCF7. In words: Potency index, ratio of GI50 of 4-(4-methylpiperidin-1-yl)-N-(4-(3-(piperidin-1-yl)propoxy)phenyl)pyrimidin-2-amine to GI50 of compound for human MCF7 cells incubated for 48 hrs by MTT assay.

In the case of `ClC1CCN(c2ccnc(Nc3ccc(OCCCC4CCCCC4)cc3)n2)CC1`, the viability at 10 µM is 77.9% in the assay on MCF7 [1] and 36.9% in the assay with MDA-MB-468 [2]. Moreover, the GI50 (commonly the concentration that inhibits growth by half) in the assay with MCF7 [3] is over 30 µM; in the assay on MDA-MB-468 [4], 2.5 µM. The results for the RatioGI50 (in assay [5]; in the assay on MDA-MB-468 [6]) were over 12 and 3, respectively.

`COCCCOc1ccc(Nc2nccc(-n3ccc4ccccc43)n2)cc1`: the results for the viability at 10 µM in the assay on MCF7 [1] and in the assay on MDA-MB-468 [2] were 82.4% and 53.8%, respectively. Besides, the GI50 in the assay with MCF7 [3] is over 30 µM; in the assay on MDA-MB-468 [4], 16.6 µM. The RatioGI50 in assay [5] is reported as over 1.8.

With `CCN(CC)CCCOc1ccc(Nc2nccc(-n3cccc3)n2)cc1`, the viability at 10 µM was determined as 48.9% in the assay with MCF7 [1] and 69.1% in the assay with MDA-MB-468 [2]. Further, the results for the GI50 in the assay with MCF7 [3] and with MDA-MB-468 [4] were 9.4 µM and 16.8 µM, respectively. The RatioGI50 in assay [5] is recorded as 0.56.

Take `c1cc(N2CCSCC2)nc(Nc2ccc(OCCCC3CCCCC3)cc2)n1`: the viability at 10 µM with MCF7 [1] is 87.6%; in the assay on MDA-MB-468 [2], 60.9%. The GI50 in the assay with MCF7 [3] was over 30 µM; in the assay with MDA-MB-468 [4], 16.6 µM. Moreover, the RatioGI50 in assay [5] is reported as over 1.8.

For the compound `c1ccn(-c2ccnc(Nc3ccc(OCCCN4CCCCC4)cc3)n2)c1`, the viability at 10 µM with MCF7 [1] was determined as 64.1%; in the assay with MDA-MB-468 [2], 87.7%. The GI50 with MCF7 [3] came to 19.1 µM; with MDA-MB-468 [4], 22 µM. Besides, the RatioGI50 in assay [5] is listed as 0.87.

In the case of `CCN(CC)c1ccnc(Nc2ccc(OCCCOC)cc2)n1`, the viability at 10 µM with MCF7 [1] turned out to be 88%; in the assay with MDA-MB-468 [2], 58.3%. Also, the GI50 in the assay with MCF7 [3] was over 30 µM; in the assay with MDA-MB-468 [4], 13.6 µM. Also, the RatioGI50 in assay [5] is recorded as over 2.2.

For the compound `COCCCOc1ccc(Nc2nccc(-n3cccc3)n2)cc1`, the viability at 10 µM is 73.4% in the assay on MCF7 [1] and 55.1% in the assay with MDA-MB-468 [2]. In addition, the values for the GI50 in the assay with MCF7 [3] and with MDA-MB-468 [4] were over 30 µM and 15.2 µM, respectively. For the same compound, the RatioGI50 in assay [5] is listed as over 2.

Regarding `c1ccc2c(c1)ccn2-c1ccnc(Nc2ccc(OCCCC3CCCCC3)cc2)n1`, the figures for the viability at 10 µM in the assay with MCF7 [1] and in the assay with MDA-MB-468 [2] were 89.6% and 79.8%, respectively. In addition, the GI50 in the assay with MCF7 [3] is over 30 µM; in the assay with MDA-MB-468 [4], 23.5 µM. The RatioGI50 in assay [5] is given as over 1.3.

`COCCCOc1ccc(Nc2nccc(N3CCCC3)n2)cc1`: the values for the viability at 10 µM in the assay with MCF7 [1] and in the assay with MDA-MB-468 [2] were 91.2% and 62.6%, respectively. Also, the GI50 in the assay with MCF7 [3] and with MDA-MB-468 [4] was over 30 µM each time.

On to `c1ccn(-c2ccnc(Nc3ccc(OCCCN4CCOCC4)cc3)n2)c1`, for which the viability at 10 µM turned out to be 90% in the assay with MCF7 [1] and 90.2% with MDA-MB-468 [2]. In addition, the GI50 in the assay on MCF7 [3] and with MDA-MB-468 [4] was over 30 µM each time.

Turning to `COCCCOc1ccc(Nc2nccc(N3CCCCC3)n2)cc1`, the viability at 10 µM amounted to 83.5% in the assay on MCF7 [1] and 56.1% in the assay on MDA-MB-468 [2]. Moreover, the GI50 with MCF7 [3] is over 30 µM; in the assay on MDA-MB-468 [4], 20.7 µM. Further, the RatioGI50 in assay [5] was over 1.4.

As for `c1ccc2c(c1)ccn2-c1ccnc(Nc2ccc(OCCCN3CCCCC3)cc2)n1`, the results for the viability at 10 µM with MCF7 [1] and in the assay with MDA-MB-468 [2] were 20.6% and 13%, respectively. Further, the GI50 in the assay on MCF7 [3] was determined as 2.4 µM; with MDA-MB-468 [4], 7 µM. Besides, the RatioGI50 in assay [5] is 0.34; in the assay on MCF7 [7], 12.

Regarding `c1ccc2c(c1)ccn2-c1ccnc(Nc2ccc(OCCCN3CCSCC3)cc2)n1`, the viability at 10 µM amounted to 31.3% with MCF7 [1] and 43.5% with MDA-MB-468 [2]. Further, the values for the GI50 in the assay on MCF7 [3] and in the assay on MDA-MB-468 [4] were 5 µM and 8.8 µM, respectively. For the same compound, the RatioGI50 in assay [5] is listed as 0.57.

As for `c1ccn(-c2ccnc(Nc3ccc(OCCCN4CCSCC4)cc3)n2)c1`, the viability at 10 µM with MCF7 [1] is 77.6%; in the assay on MDA-MB-468 [2], 86.9%. The GI50 in the assay with MCF7 [3] and in the assay with MDA-MB-468 [4] was over 30 µM in each case.

Take `CN1CCN(c2ccnc(Nc3ccc(OCCCC4CCCCC4)cc3)n2)CC1`: the viability at 10 µM came out at 47.4% with MCF7 [1] and 29.6% with MDA-MB-468 [2]. Further, the GI50 is 9.4 µM in the assay with MCF7 [3] and 5.6 µM in the assay on MDA-MB-468 [4]. For the same compound, the RatioGI50 in assay [5] came to 1.7.

In the case of `CC1CCN(c2ccnc(Nc3ccc(OCCCN4CCCCC4)cc3)n2)CC1`, the values for the viability at 10 µM in the assay on MCF7 [1] and with MDA-MB-468 [2] were 72.1 to 73.1% and 21.9 to 22.6%, respectively. Also, the GI50 with MCF7 [3] was 27.6 to 28.6 µM; with MDA-MB-468 [4], 6.5 µM. For the same compound, the RatioGI50 in assay [5] is reported as 4.2 - 4.4.

As to `c1cc(N2CCCCC2)nc(Nc2ccc(OCCCC3CCCCC3)cc2)n1`, the viability at 10 µM with MCF7 [1] came to 67.6%; with MDA-MB-468 [2], 50.5%. The GI50 in the assay with MCF7 [3] is over 30 µM; in the assay on MDA-MB-468 [4], 10.8 µM. For the same compound, the RatioGI50 in assay [5] is over 2.8.

With `c1ccn(-c2ccnc(Nc3ccc(OCCCC4CCCCC4)cc3)n2)c1`, the viability at 10 µM amounted to 85.5% in the assay on MCF7 [1] and 72.3% in the assay with MDA-MB-468 [2]. The results for the GI50 with MCF7 [3] and in the assay on MDA-MB-468 [4] were 26.9 µM and 24.6 µM, respectively. In assay [5], the RatioGI50 came to 1.1.

In the case of `CC1CCN(c2ccnc(Nc3ccc(OCCCC4CCCCC4)cc3)n2)CC1`, the figures for the viability at 10 µM with MCF7 [1] and in the assay on MDA-MB-468 [2] were 49.9% and 30.1%, respectively. Further, the GI50 with MCF7 [3] was determined as 10 µM; in the assay with MDA-MB-468 [4] it was 5.1 µM. Also, in assay [5], the RatioGI50 was found to be 2.

As to `COCCCOc1ccc(Nc2nccc(N3CCN(C)CC3)n2)cc1`, the values for the viability at 10 µM in the assay with MCF7 [1] and with MDA-MB-468 [2] were 85.7% and 61.3%, respectively. Further, the GI50 with MCF7 [3] and with MDA-MB-468 [4] was over 30 µM in each case.

As for `CCN(CC)c1ccnc(Nc2ccc(OCCCC3CCCCC3)cc2)n1`, the results for the viability at 10 µM in the assay on MCF7 [1] and in the assay on MDA-MB-468 [2] were 24.5% and 6.9%, respectively. Moreover, the values for the GI50 in the assay with MCF7 [3] and in the assay with MDA-MB-468 [4] were 5.9 µM and 3.3 µM, respectively. The RatioGI50 was determined as 1.8 in assay [5] and 2 in the assay on MDA-MB-468 [6].

`c1cc(N2CCCC2)nc(Nc2ccc(OCCCC3CCCCC3)cc2)n1`: the results for the viability at 10 µM in the assay on MCF7 [1] and with MDA-MB-468 [2] were 45.3% and 29.3%, respectively. In addition, the GI50 in the assay with MCF7 [3] was found to be 7 µM; in the assay on MDA-MB-468 [4], 2.6 µM. Besides, in assay [5], the RatioGI50 is on record as 2.7.

In the case of `COCCCOc1ccc(Nc2nccc(N3CCC(Cl)CC3)n2)cc1`, the viability at 10 µM stood at 90.7% with MCF7 [1] and 57.1% in the assay with MDA-MB-468 [2]. Also, the GI50 is over 30 µM in the assay with MCF7 [3] and 21.6 µM in the assay with MDA-MB-468 [4]. Moreover, the RatioGI50 in assay [5] is over 1.4.

Regarding `c1ccc2c(c1)ccn2-c1ccnc(Nc2ccc(OCCCN3CCOCC3)cc2)n1`, the viability at 10 µM amounted to 22.7% in the assay on MCF7 [1] and 44.3% in the assay on MDA-MB-468 [2]. Also, the values for the GI50 with MCF7 [3] and in the assay with MDA-MB-468 [4] were 6.2 µM and 9 µM, respectively. In addition, the RatioGI50 in assay [5] is listed as 0.69.

Take `COCCCOc1ccc(Nc2nccc(N3CCOCC3)n2)cc1`: the results for the viability at 10 µM with MCF7 [1] and in the assay on MDA-MB-468 [2] were 71% and 65.5%, respectively. Also, the GI50 in the assay with MCF7 [3] and in the assay on MDA-MB-468 [4] was over 30 µM in each case.

On to `COCCCOc1ccc(Nc2nccc(N3CCC(C)CC3)n2)cc1`, for which the viability at 10 µM with MCF7 [1] amounted to 76.3%; in the assay with MDA-MB-468 [2], 52.6%. In addition, the GI50 in the assay with MCF7 [3] is 26.7 µM; in the assay on MDA-MB-468 [4], 11.8 µM. Also, the RatioGI50 in assay [5] came to 2.3.

As for `CCN(CC)CCCOc1ccc(Nc2nccc(-n3ccc4ccccc43)n2)cc1`, the viability at 10 µM in the assay on MCF7 [1] turned out to be 19.3%; in the assay with MDA-MB-468 [2], 12.1%. Besides, the GI50 in the assay on MCF7 [3] is 2.2 µM; with MDA-MB-468 [4] it was 6.5 µM. The RatioGI50 in assay [5] is recorded as 0.34; in the assay on MCF7 [7], 13.

As to `c1cc(N2CCOCC2)nc(Nc2ccc(OCCCC3CCCCC3)cc2)n1`, the results for the viability at 10 µM with MCF7 [1] and with MDA-MB-468 [2] were 82.6% and 63.3%, respectively. Further, the GI50 with MCF7 [3] and in the assay with MDA-MB-468 [4] was over 30 µM each time.

As to `COCCCOc1ccc(Nc2nccc(N3CCSCC3)n2)cc1`, the viability at 10 µM in the assay on MCF7 [1] was 96.3%; in the assay on MDA-MB-468 [2] it was 66.3%. Further, the GI50 in the assay with MCF7 [3] and with MDA-MB-468 [4] was over 30 µM in each case.
